Data taken from ChEMBL document CHEMBL1201862, “PubChem BioAssay data set” (2004).
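Exposure lasted 48 hours, with cells grown in 96-well plates and compounds tested at five concentrations. Here, GI50 denotes the concentration required for 50% inhibition of growth.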 Active and inactive are the calls of the source. Rule as the data show it: active = GI50 up to about 1.1 µM and inactive = higher.

Legend:
Test in all cases: NCI tumour cell line growth inhibition, 48 h
NCI-H522 = tested on: NCI-H522
DMS-273 = tested on: DMS-273
UACC-257 = tested on: UACC-257
A498 = tested on: A498
OVCAR-3 = tested on: OVCAR-3
HOP-18 = tested on: HOP-18
EKVX = tested on: EKVX
SF-295 = tested on: SF-295
HT-29 = tested on: HT-29
SNB-19 = tested on: SNB-19
HCC 2998 = tested on: HCC 2998
OVCAR-5 = tested on: OVCAR-5
RXF 393 = tested on: RXF 393
OVCAR-4 = tested on: OVCAR-4
SW-620 = tested on: SW-620
LOX IMVI = tested on: LOX IMVI
IGROV-1 = tested on: IGROV-1
MOLT-4 = tested on: MOLT-4
NCI-H23 = tested on: NCI-H23
SNB-78 = tested on: SNB-78
XF498 = tested on: XF498
KM-20L2 = tested on: KM-20L2
COLO 205 = tested on: COLO 205
DMS-114 = tested on: DMS-114
KM12 = tested on: KM12
SK-MEL-28 = tested on: SK-MEL-28
Malme-3M = tested on: Malme-3M
K562 = tested on: K562
NCI/ADR-RES = tested on: NCI/ADR-RES
CCRF-CEM = tested on: CCRF-CEM
UO-31 = tested on: UO-31
MCF7 = tested on: MCF7
SF-539 = tested on: SF-539
SNB-75 = tested on: SNB-75
NCI-H226 = tested on: NCI-H226
M19-MEL = tested on: M19-MEL
HOP-92 = tested on: HOP-92
U-251 = tested on: U-251
CAKI-1 = tested on: CAKI-1
HL-60 = tested on: HL-60
A549 = tested on: A549
HOP-62 = tested on: HOP-62
HCT-15 = tested on: HCT-15
HCT-116 = tested on: HCT-116
SK-OV-3 = tested on: SK-OV-3
DLD-1 = tested on: DLD-1
SK-MEL-5 = tested on: SK-MEL-5
SK-MEL-2 = tested on: SK-MEL-2
NCI-H460 = tested on: NCI-H460
OVCAR-8 = tested on: OVCAR-8
RPMI-8226 = tested on: RPMI-8226
SN12C = tested on: SN12C
SF-268 = tested on: SF-268
UACC-62 = tested on: UACC-62
TK-10 = tested on: TK-10
786-0 = tested on: 786-0
LXFL 529 = tested on: LXFL 529
M14 = tested on: M14
ACHN = tested on: ACHN

For `CCCCCCCCCCCCCCCCNCC(O)CN` (stereo not drawn), the GI50 (NCI-H522) was 14.5 µM (inactive), the GI50 (DMS-273) was 3.96 µM (inactive) and the GI50 (UACC-257) was 9.89 µM (inactive). The GI50 (A498) was 18 µM (inactive), the GI50 (OVCAR-3) was 2.52 µM (inactive) and the GI50 (HOP-18) was 5.46 µM (inactive). For the same molecule, the GI50 (EKVX) was 17.3 µM (inactive), the GI50 (SF-295) was 2.64 µM (inactive) and the GI50 (HT-29) was 1.99 µM (inactive). The GI50 (SNB-19) was 19.5 µM (inactive), the GI50 (HCC 2998) was 2.39 µM (inactive) and the GI50 (OVCAR-5) was 7.76 µM (inactive). The GI50 (RXF 393) was 2.82 µM (inactive), the GI50 (OVCAR-4) was 3.48 µM (inactive) and the GI50 (SW-620) was 1.79 µM (inactive). The GI50 (LOX IMVI) was 1.75 µM (inactive), the GI50 (IGROV-1) was 5.19 µM (inactive) and the GI50 (MOLT-4) was 2.07 µM (inactive). For the same molecule, the GI50 (NCI-H23) was 6.71 µM (inactive), the GI50 (SNB-78) was 2.48 µM (inactive) and the GI50 (XF498) was 7.29 µM (inactive). For the same molecule, the GI50 (KM-20L2) was 2.65 µM (inactive), the GI50 (COLO 205) was 1.87 µM (inactive) and the GI50 (DMS-114) was 5.69 µM (inactive). For the same molecule, the GI50 (KM12) was 1.75 µM (inactive), the GI50 (SK-MEL-28) was 13.1 µM (inactive) and the GI50 (Malme-3M) was 16.2 µM (inactive). For the same molecule, the GI50 (K562) was 1.75 µM (inactive), the GI50 (NCI/ADR-RES) was 2.22 µM (inactive) and the GI50 (CCRF-CEM) was 1.96 µM (inactive). For the same molecule, the GI50 (UO-31) was 7.73 µM (inactive), the GI50 (MCF7) was 2.36 µM (inactive) and the GI50 (SF-539) was 2.34 µM (inactive). For the same molecule, the GI50 (SNB-75) was 3.28 µM (inactive), the GI50 (NCI-H226) was 8.89 µM (inactive) and the GI50 (M19-MEL) was 2.4 µM (inactive). For the same molecule, the GI50 (HOP-92) was 2.65 µM (inactive), the GI50 (U-251) was 2.51 µM (inactive) and the GI50 (CAKI-1) was 12.2 µM (inactive). The GI50 (HL-60) was 1.85 µM (inactive), the GI50 (A549) was 3.44 µM (inactive) and the GI50 (HOP-62) was 16.7 µM (inactive). For the same molecule, the GI50 (HCT-15) was 2.06 µM, the GI50 (HCT-116) was 1.87 µM (inactive) and the GI50 (SK-OV-3) was 18.4 µM (inactive). The GI50 (DLD-1) was 1.87 µM (inactive), the GI50 (SK-MEL-5) was 11.7 µM (inactive) and the GI50 (SK-MEL-2) was 18.6 µM (inactive). The GI50 (NCI-H460) was 1.84 µM (inactive), the GI50 (OVCAR-8) was 3.53 µM (inactive) and the GI50 (RPMI-8226) was 2 µM (inactive). The GI50 (SN12C) was 4.07 µM (inactive), the GI50 (SF-268) was 3.32 µM (inactive) and the GI50 (UACC-62) was 4.7 µM (inactive).

`CC(C)COC1Sc2ccccc2S1` was tested, and the GI50 (TK-10) was 21.5 µM (inactive), the GI50 (DMS-273) was 19.8 µM (inactive) and the GI50 (786-0) was 22.3 µM (inactive). For the same molecule, the GI50 (LXFL 529) was 20.7 µM (inactive), the GI50 (OVCAR-3) was 19.6 µM (inactive) and the GI50 (HOP-18) was 16.5 µM (inactive). The GI50 (EKVX) was 20 µM (inactive), the GI50 (SF-295) was 16.4 µM (inactive) and the GI50 (HT-29) was 13.1 µM (inactive). For the same molecule, the GI50 (SNB-19) was 18.1 µM (inactive), the GI50 (HCC 2998) was 28.7 µM (inactive) and the GI50 (M14) was 20.6 µM (inactive). The GI50 (RXF 393) was 18.2 µM (inactive), the GI50 (OVCAR-4) was 23.1 µM (inactive) and the GI50 (SW-620) was 29.7 µM (inactive). For the same molecule, the GI50 (LOX IMVI) was 12.7 µM (inactive), the GI50 (IGROV-1) was 5.35 µM (inactive) and the GI50 (MOLT-4) was 5.05 µM (inactive). For the same molecule, the GI50 (NCI-H23) was 22.3 µM (inactive), the GI50 (SNB-78) was 27.9 µM (inactive) and the GI50 (XF498) was > 10 µM (inactive). For the same molecule, the GI50 (KM-20L2) was 17.5 µM (inactive), the GI50 (COLO 205) was 32.4 µM (inactive) and the GI50 (DMS-114) was 12.5 µM (inactive). For the same molecule, the GI50 (SK-MEL-28) was 17.4 µM (inactive), the GI50 (Malme-3M) was 23.6 µM (inactive) and the GI50 (CCRF-CEM) was 27.7 µM (inactive). For the same molecule, the GI50 (UO-31) was 15.5 µM (inactive), the GI50 (SNB-75) was 1.32 µM (inactive) and the GI50 (HOP-92) was 14.5 µM (inactive). For the same molecule, the GI50 (U-251) was 18.7 µM (inactive), the GI50 (CAKI-1) was 16.3 µM (inactive) and the GI50 (A549) was 20.5 µM (inactive). The GI50 (HOP-62) was 21.4 µM (inactive), the GI50 (HCT-15) was 22.4 µM and the GI50 (SK-OV-3) was 28.1 µM (inactive). The GI50 (DLD-1) was 16.4 µM (inactive), the GI50 (NCI-H460) was 7.85 µM (inactive) and the GI50 (ACHN) was 15.7 µM (inactive). For the same molecule, the GI50 (OVCAR-8) was 29.1 µM (inactive), the GI50 (RPMI-8226) was 5.45 µM (inactive) and the GI50 (SN12C) was 18.8 µM (inactive). The GI50 (SF-268) was 23.1 µM (inactive) and the GI50 (UACC-62) was 4.91 µM (inactive).
